Reference: patent publication US8445474B2 (Knopp Neurosciences, Inc., priority 2006, dated 2013)
pIC50, pKi: −log10 of the molar value.

What was measured:
dopamine receptors = settings: present data
[1] = biological target: human cloned dopamine receptor D2L (Homo sapiens, UniProt P14416); settings: R(+) versus S(−)
Description: (§1) Eight concentrations were tested: 50 nM, 100 nM, 500 nM, 1 μM, 5 μM, 10 μM, 50 μM, 100 μM. These concentrations were tested in either CHO (Chinese hamster ovary) or HEK293 (human embryonic kidney) cell lines expressing human cloned dopamine receptors (D1, D2S, D2L, D3, D4, D5). The radio-ligand in each case was either [^3H] spiperone or [^3H] SCH23390 (a classic D1 dopamine receptor antagonist R-(+)-7-Chloro-8-hydroxy-3-methyl-1-phenyl-2,3,4,5-tetrahydro-1H-3-benzazepine hydrochloride), both antagonists at 0.3 nM. Incubation was for 60 minutes, and data were collected for 2 repeats using scintillation counting.

[2] = biological target: human cloned dopamine receptor D2S (Homo sapiens, UniProt P14416); settings: R(+) versus S(−)
Description: as §1

[3] = biological target: human cloned dopamine receptor D3 (Homo sapiens, UniProt P35462); assay: biochemical
Description: as §1

[4] = biological target: human cloned dopamine receptor D5 (Homo sapiens, UniProt P21918); assay: biochemical
Description: as §1

[5] = Dissolution of exploratory combination capsules in simulated gastric fluid (SGF), chiral HPLC; format: physicochemical; settings: for Average Concentrations of the enantiomer, Experiments SGF (1) and SGF (2) / Concentration of the enantiomer in SGF (1) Vessel / Concentration of the enantiomer in SGF (2) Vessel: combination capsule in 10 mL SGF pH 1.2
Description: Drug Formulation. […] Normal phase, chiral HPLC was used for monitoring the release of R(+) pramipexole and S(−) pramipexole in simulated gastric fluid (SGF).
Dissolution Study. SGF (pH=1.2) was prepared by diluting 1 g of sodium chloride and 7 mL of concentrated HCl to 1 L with HPLC grade water. The dissolution experiment was run as follows: an exploratory combination capsule was placed in 10 mL of SGF and shaken under ambient conditions at 600 RPM for 60 minutes. Aliquots of 100 μL were pulled from the same sample vessel at various time points. The 100 μL samples of SGF solution were evaporated using a nitrogen bleed and heat and the residues were dissolved in the HPLC diluent and filtered through 0.45 μm syringe filters. […] This experiment was performed in duplicate (experiment numbers SGF (1) (see Table 4) and SGF (2) (see Table 5)) and the results are also provided in average values (see Table 6). The tables and figures below summarize the results from these experiments.

[6] = 4320 minutes, stored benchtop in clear vial
[7] = non-naïve male beagle dogs, single oral dose

human cloned dopamine receptor D3, sequence (P35462 whole entry): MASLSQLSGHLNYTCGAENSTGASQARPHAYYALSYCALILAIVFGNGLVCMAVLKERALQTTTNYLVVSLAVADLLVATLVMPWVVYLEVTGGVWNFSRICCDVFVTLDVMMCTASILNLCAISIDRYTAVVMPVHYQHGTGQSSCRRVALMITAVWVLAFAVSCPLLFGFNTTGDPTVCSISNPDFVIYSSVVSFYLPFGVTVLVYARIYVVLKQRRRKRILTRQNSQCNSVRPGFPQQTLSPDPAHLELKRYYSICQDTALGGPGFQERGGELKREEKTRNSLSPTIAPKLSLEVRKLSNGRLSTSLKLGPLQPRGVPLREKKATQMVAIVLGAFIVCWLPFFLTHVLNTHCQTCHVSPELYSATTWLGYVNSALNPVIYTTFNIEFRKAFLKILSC
human cloned dopamine receptor D5, sequence (P21918 whole entry): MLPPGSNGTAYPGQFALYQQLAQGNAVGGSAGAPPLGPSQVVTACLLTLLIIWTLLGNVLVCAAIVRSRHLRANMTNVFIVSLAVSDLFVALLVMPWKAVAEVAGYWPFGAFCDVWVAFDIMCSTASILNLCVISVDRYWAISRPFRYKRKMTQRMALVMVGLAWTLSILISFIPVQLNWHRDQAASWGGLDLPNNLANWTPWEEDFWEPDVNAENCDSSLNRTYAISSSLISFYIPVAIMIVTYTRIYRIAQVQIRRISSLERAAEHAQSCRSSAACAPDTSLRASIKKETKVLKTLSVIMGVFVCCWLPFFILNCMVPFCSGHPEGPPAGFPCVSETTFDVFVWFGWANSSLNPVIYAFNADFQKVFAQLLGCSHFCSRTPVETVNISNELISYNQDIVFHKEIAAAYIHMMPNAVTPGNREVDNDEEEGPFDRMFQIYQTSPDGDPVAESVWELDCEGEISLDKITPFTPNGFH
human cloned dopamine receptor D2S, sequence (P14416 1-414 isoform P14416-2): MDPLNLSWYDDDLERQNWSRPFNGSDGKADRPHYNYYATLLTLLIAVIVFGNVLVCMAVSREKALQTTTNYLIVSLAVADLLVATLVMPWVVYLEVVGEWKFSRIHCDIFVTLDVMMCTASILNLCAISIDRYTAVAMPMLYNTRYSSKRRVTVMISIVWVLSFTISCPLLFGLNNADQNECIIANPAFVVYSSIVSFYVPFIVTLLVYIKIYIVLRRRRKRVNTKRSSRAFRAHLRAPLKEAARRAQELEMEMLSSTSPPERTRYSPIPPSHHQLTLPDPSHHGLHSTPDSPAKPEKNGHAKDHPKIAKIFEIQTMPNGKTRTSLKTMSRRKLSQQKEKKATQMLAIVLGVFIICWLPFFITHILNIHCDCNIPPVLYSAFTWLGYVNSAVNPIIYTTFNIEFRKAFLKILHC
human cloned dopamine receptor D2L, sequence (P14416 whole entry): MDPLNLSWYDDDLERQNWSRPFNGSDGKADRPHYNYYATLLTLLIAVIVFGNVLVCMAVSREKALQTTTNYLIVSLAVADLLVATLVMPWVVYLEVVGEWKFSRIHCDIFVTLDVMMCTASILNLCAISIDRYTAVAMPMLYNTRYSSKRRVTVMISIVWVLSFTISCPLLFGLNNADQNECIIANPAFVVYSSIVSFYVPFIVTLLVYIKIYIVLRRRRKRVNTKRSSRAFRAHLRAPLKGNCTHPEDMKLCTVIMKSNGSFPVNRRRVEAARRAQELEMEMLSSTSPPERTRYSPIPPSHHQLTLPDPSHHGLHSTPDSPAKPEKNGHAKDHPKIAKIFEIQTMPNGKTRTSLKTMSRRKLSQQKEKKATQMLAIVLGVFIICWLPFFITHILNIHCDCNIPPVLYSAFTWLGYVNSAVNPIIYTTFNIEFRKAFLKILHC
Description for male beagle dogs: Doses were administered orally by gavage and clinical observations were taken continuously following dosing: hourly for the first four hours, and then twice daily cage-side observations for the duration of the inter-dose or post-dose interval. Observations were made of clinical signs, mortality, injury and availability of food and water. Animals were fasted for 24 hr prior to dosing. Dogs in each group were exposed to only one drug, or the combination; each dose was administered only once, with a subsequent dose administered after a recovery period of 4 days.

## CCCN[C@H]1CCc2nc(N)sc2C1 (single isomer, unassigned) [R(+) pramipexole]
Dopamine receptors
  less active as a dopamine agonist than the S(−) enantiomer: more than 5,000 fold
[1]
  lower affinity for the D2L receptor subtype than the S(−) enantiomer: > 10,000 fold
[2]
  lower affinity for the D2S receptor subtype than the S(−) enantiomer: > 10,000 fold
[3]
  pIC50: 4.92
  pKi: 5.57
[3]; R(+) versus S(−)
  less affinity for the D3 receptor subtype than the S(−) enantiomer: about 5,000 fold
[4]
  pIC50: < 4.00
  pKi: < 4.00
[5]; 3 minutes
  Average Concentrations of the enantiomer, Experiments SGF (1) and SGF (2): 0 mg/mL
  Concentration of the enantiomer in SGF (1) Vessel: 0 mg/mL
  Concentration of the enantiomer in SGF (2) Vessel: 0 mg/mL
[5]; 4 minutes
  Average Concentrations of the enantiomer, Experiments SGF (1) and SGF (2): 0.002035 mg/mL
  Concentration of the enantiomer in SGF (1) Vessel: 0.001824 mg/mL
  Concentration of the enantiomer in SGF (2) Vessel: 0.002245 mg/mL
[5]; 6 minutes
  Average Concentrations of the enantiomer, Experiments SGF (1) and SGF (2): 0.06814 mg/mL
  Concentration of the enantiomer in SGF (1) Vessel: 0.04259 mg/mL
  Concentration of the enantiomer in SGF (2) Vessel: 0.0937 mg/mL
[5]; 8 minutes
  Average Concentrations of the enantiomer, Experiments SGF (1) and SGF (2): 7.346 mg/mL
  Concentration of the enantiomer in SGF (1) Vessel: 6.441 mg/mL
  Concentration of the enantiomer in SGF (2) Vessel: 8.250 mg/mL
[5]; 10 minutes
  Average Concentrations of the enantiomer, Experiments SGF (1) and SGF (2): 8.615 mg/mL
  Concentration of the enantiomer in SGF (1) Vessel: 8.443 mg/mL
  Concentration of the enantiomer in SGF (2) Vessel: 8.787 mg/mL
[5]; 11 minutes
  Average Concentrations of the enantiomer, Experiments SGF (1) and SGF (2): 8.938 mg/mL
  Concentration of the enantiomer in SGF (1) Vessel: 8.746 mg/mL
  Concentration of the enantiomer in SGF (2) Vessel: 9.131 mg/mL
[5]; 12 minutes
  Average Concentrations of the enantiomer, Experiments SGF (1) and SGF (2): 8.927 mg/mL
  Concentration of the enantiomer in SGF (1) Vessel: 8.767 mg/mL
  Concentration of the enantiomer in SGF (2) Vessel: 9.086 mg/mL
[5]; 14 minutes
  Average Concentrations of the enantiomer, Experiments SGF (1) and SGF (2): 9.164 mg/mL
  Concentration of the enantiomer in SGF (1) Vessel: 9.236 mg/mL
  Concentration of the enantiomer in SGF (2) Vessel: 9.092 mg/mL
[5]; 15 minutes
  Average Concentrations of the enantiomer, Experiments SGF (1) and SGF (2): 9.463 mg/mL
  Concentration of the enantiomer in SGF (1) Vessel: 9.510 mg/mL
  Concentration of the enantiomer in SGF (2) Vessel: 9.416 mg/mL
[5]; 17 minutes
  Average Concentrations of the enantiomer, Experiments SGF (1) and SGF (2): 9.438 mg/mL
  Concentration of the enantiomer in SGF (1) Vessel: 9.398 mg/mL
  Concentration of the enantiomer in SGF (2) Vessel: 9.477 mg/mL
[5]; 18 minutes
  Average Concentrations of the enantiomer, Experiments SGF (1) and SGF (2): 9.258 mg/mL
  Concentration of the enantiomer in SGF (1) Vessel: 9.127 mg/mL
  Concentration of the enantiomer in SGF (2) Vessel: 9.390 mg/mL
[5]; 20 minutes
  Average Concentrations of the enantiomer, Experiments SGF (1) and SGF (2): 9.475 mg/mL
  Concentration of the enantiomer in SGF (1) Vessel: 9.457 mg/mL
  Concentration of the enantiomer in SGF (2) Vessel: 9.493 mg/mL
[5]; 25 minutes
  Average Concentrations of the enantiomer, Experiments SGF (1) and SGF (2): 9.61 mg/mL
  Concentration of the enantiomer in SGF (1) Vessel: 9.579 mg/mL
  Concentration of the enantiomer in SGF (2) Vessel: 9.641 mg/mL
[5]; 30 minutes
  Average Concentrations of the enantiomer, Experiments SGF (1) and SGF (2): 9.65 mg/mL
  Concentration of the enantiomer in SGF (1) Vessel: 9.894 mg/mL
  Concentration of the enantiomer in SGF (2) Vessel: 9.406 mg/mL
[5]; 60 minutes
  Average Concentrations of the enantiomer, Experiments SGF (1) and SGF (2): 9.127 mg/mL
  Concentration of the enantiomer in SGF (1) Vessel: 9.530 mg/mL
  Concentration of the enantiomer in SGF (2) Vessel: 8.725 mg/mL
[5]; [6]
  Average Concentrations of the enantiomer, Experiments SGF (1) and SGF (2): 4.163 mg/mL
  Concentration of the enantiomer in SGF (1) Vessel: 3.624 mg/mL
  Concentration of the enantiomer in SGF (2) Vessel: 4.702 mg/mL
[5]; SGF pH 1.2, 60 minutes
  course of release from the capsule: leveled off after 11 minutes
[5]; SGF samples stored benchtop in a clear vial
  cause of decrease in concentration at approximately 72 hours: light degradation
Male beagle dogs; 70 kg individual
  human dose equivalent to dog MTD: about 3,000 mg
Male beagle dogs; non-naïve dogs
  MTD greater than for the S(−) enantiomer: about 10,000 fold
  NOAEL greater than for the S(−) enantiomer: approximately 20,000 fold
Male beagle dogs; [7]
  MTD: 75 mg/kg
  NOAEL: 25 mg/kg
